T1/2 data for one substance are collected here from ChEMBL document CHEMBL1145191, “NMR studies reveal structural differences between the gallium and yttrium complexes of DOTA-D-Phe1-Tyr3-octreotide” (J Med Chem, 2005).

The data set is described as follows: Half-life time of the compound. It counts as ADME.

Substance GaIII-DOTATOC yielded a T1/2 of 1.13 h.
